Consider eight compounds from patent publication US8673968B2, “Progesterone antagonists” (Evestra, Inc., priority 2009, dated 2014).

Structures are written as SMILES.

The target in experiment [1] is T1, progesterone receptor-LBD (Homo sapiens, UniProt P06401).
T1 construct: host or cells: HEK 293T (progesterone receptor-LBD-UAS-bla)
T1 sequence (P06401 679-913 limits assumed): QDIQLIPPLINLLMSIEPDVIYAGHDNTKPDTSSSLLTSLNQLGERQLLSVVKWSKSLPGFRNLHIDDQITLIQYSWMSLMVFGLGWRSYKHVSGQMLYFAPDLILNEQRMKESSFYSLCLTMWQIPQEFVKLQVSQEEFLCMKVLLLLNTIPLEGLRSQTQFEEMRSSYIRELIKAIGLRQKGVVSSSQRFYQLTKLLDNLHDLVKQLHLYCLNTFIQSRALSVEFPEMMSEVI
Kind of experiment: Progesterone Antagonist Screen, activated by control agonist R5020 (GENEBLAZER beta-lactamase reporter). The settings on record: progesterone receptor-LBD-UAS-bla HEK 293T cells; control agonist R5020 at EC80; read-out: Progesterone Antagonist Inhibition IC50. Format: cell-based. On the procedure:
(§1) Determination of the agonist/antagonist nature of the test compounds was carried out using Invitrogen's SELECTSCREEN, a cell-based nuclear receptor profiling service which uses GENEBLAZER a beta-lactamase reporter technology. This assay uses a Beta-lactamase cDNA under transcriptional control of an Upstream Activator Sequence (UAS). The UAS is activated by the GAL4 transcription factor DNA binding domain (DBD), which is expressed as a fusion protein with the target receptor ligand binding domain (LBD). Upon ligand binding, the GAL4(DBD)-NR(LDB) binds to the UAS, which controls transcription of Beta-lactamase. Beta-lactamase cleaves a special engineered fluorescent substrate which results in a change in the measured fluorescence wavelength.
The generalized protocol used for the Progesterone Antagonist Screen, activated by control Agonist R5020 is as follows:
32 μL of cell suspension is added to the wells which is then pre-incubated at 37 C/5% CO2 in a humidified incubator with test compounds and control antagonist titration for 30 minutes. 4 μL of a 10× control agonist (see above) at the predetermined EC80 concentration is added to wells containing the control antagonist or test compounds. The plate is incubated for 16-24 hours at 37 C/5% CO2 in a humidified incubator. 8 μl of 1 μM Substrate Loading Solution is added to each well and the plate is incubated for 2 hours at room temperature. The plate is then read on a fluorescence plate reader (Tecan Safire).

Experiment [2] concerns the target T1, progesterone receptor-LBD. Put plainly: Progesterone Agonist screen (SELECTSCREEN GENEBLAZER beta-lactamase reporter). It counts as cell-based. Conditions: progesterone receptor-LBD-UAS-bla HEK 293T cells; read-out: Progesterone Agonist Activation IC50. On the procedure:
as §1
The plate is incubated for 16-24 hours at 37° C./5% CO2 in a humidified incubator. […] The plate is then read on a fluorescence plate reader (Tecan Safire).

In experiment [3] the target is T2, glucocorticoid receptor-LBD (Homo sapiens, UniProt P04150).
T2 construct: host or cells: HEK 293T (glucocorticoid receptor-LBD-UAS-bla)
T2 sequence (P04150 524-758 limits assumed): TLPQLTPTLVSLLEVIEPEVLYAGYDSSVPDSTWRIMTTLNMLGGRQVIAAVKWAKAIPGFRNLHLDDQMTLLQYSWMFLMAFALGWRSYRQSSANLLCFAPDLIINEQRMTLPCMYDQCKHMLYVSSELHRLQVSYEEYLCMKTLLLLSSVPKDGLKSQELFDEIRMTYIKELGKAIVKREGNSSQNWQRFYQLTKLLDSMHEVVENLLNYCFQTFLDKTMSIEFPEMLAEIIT
Kind of experiment: Glucocorticoid Antagonist Screen activated by control agonist Dexamethasone (GENEBLAZER beta-lactamase reporter). Format: cell-based. Conditions: glucocorticoid receptor-LBD-UAS-bla HEK 293T cells, read-out: Glucocorticoid Antagonist Inhibition IC50. How it is done:
as §1

Experiment [4] concerns progesterone receptor positive breast cancer. The settings on record: rat model, recent study; cited from earlier work.

Usually IC50 stands for the point on the concentration scale where inhibition reaches its midpoint. With `CC12CC(c3ccc(-c4cccnc4)cc3)C3=C4CCC(=O)C=C4CCC3C1CCC21OCCC1=C(F)F` (stereo not drawn) [Compound 1e, 21,21-difluoro-11β-[4′-(3′-pyridyl)phenyl]-17,23-epoxy-19,24-dinor-17α-chola-4,9,20-triene], the IC50 in experiment [1] came to 0.28 nM.

For `CC(=O)c1ccc([C@H]2C[C@@]3(C)[C@@H](CC[C@@]3(O)C(F)(F)C(F)(F)F)[C@@H]3CCC4=CC(=O)CCC4=C32)cc1` [ZK 230211, Lonaprisan, reference compound], the IC50 is > 10 nM in experiment [2], > 10 nM in experiment [3] and 0.798 nM in experiment [1].

Consider `CN(C)c1ccc(C2CC3(C)C(CCC34OCCC4=C(F)F)C3CCC4=CC(=O)CCC4=C23)cc1` (stereo not drawn) [Compound 1b, 21,21-difluoro-11β-[4′-(dimethylamino)phenyl]-17,23-epoxy-19,24-dinor-17α-chola-4,9,20-triene], for which the IC50 in experiment [1] was 0.178 nM.

`CC(=O)c1ccc(C2CC3(C)C(CCC34OCCC4=C(F)F)C3CCC4=CC(=O)CCC4=C23)cc1` (stereo not drawn) [Compound 1a, 21,21-difluoro-11β-(4′-acetyl)phenyl-17,23-epoxy-19,24-dinor-17α-chola-4,9,20-triene]: the IC50 in experiment [2] was > 10 nM; in experiment [3], > 10 nM; in experiment [1], 0.265 nM.

For `CC12CC(c3ccc(-c4ccoc4)cc3)C3=C4CCC(=O)C=C4CCC3C1CCC21OCCC1=C(F)F` (stereo not shown) [Compound 1f], the IC50 in experiment [1] was 0.864 nM.

As for `COCC(=O)[C@@]1(OC(C)=O)CC[C@H]2[C@@H]3CCC4=CC(=O)CCC4=C3[C@@H](c3ccc(N(C)C)cc3)C[C@@]21C` [PROELLEX], in experiment [4], the “development of new tumors” value was “decrease in the development of new tumors” and the tumor size result is given as “regression of tumor size”.

Turning to `COc1ccc(C2CC3(C)C(CCC34OCCC4=C(F)F)C3CCC4=CC(=O)CCC4=C23)cc1` (stereo not drawn) [Compound 1c, 21,21-difluoro-11β-(4′-methoxyphenyl)-17,23-epoxy-19,24-dinor-17α-chola-4,9,20-triene], in experiment [1], the IC50 stood at 0.344 nM.

As to `C=C(C)c1ccc(C2CC3(C)C(CCC34OCCC4=C(F)F)C3CCC4=CC(=O)CCC4=C23)cc1` (stereo not drawn) [Compound 1d, 21,21-difluoro-11β-(4′-isopropenylphenyl)-17,23-epoxy-19,24-dinor-17α-chola-4,9,20-triene], the IC50 in experiment [1] was determined as 0.413 nM.
